In US20230337719A1, “ORAL PRODUCT” (Nicoventures Trading Limited, priority 2020, published 2023):

Experiments:
[1] = Modern Oral Intervention Trial: in-mouth glycoside degradation of spiked oral product, HPLC quantitation; format: in vivo, human
Experimental: Test Product - An oral product was prepared based on the commercial product sold by British American Tobacco as LYFT. The product included microcrystalline cellulose as a filler. […] The samples were then left at room temperature for one day to evaporate the ethanol.
Modern Oral Intervention Trial - Three healthy volunteers (female, 30-35 years of age) were asked to place the raspberry ketone spiked oral product under their upper lip, slightly to the side of the front teeth. After 30 sec, the product was moisturised by using the tip of the tongue. After 5 min, the product was disgorged into a centrifuge tube and any salivary enzymatic processes stopped by adding methanol (5 mL, p.A.) into the centrifuge tube. The procedure was repeated with intervention times of 0 (control sample), 10 and 20 min.
Sample Preparation - The centrifuge tubes containing the oral product and methanol (5 mL, p.A.) were vortexed for 10 sec and then placed on a plate shaker for 10 min to extract the remaining raspberry ketone glycoside. Afterwards, the tubes were centrifuged (13,200 rpm, 10 min) and the supernatant decanted into a safe lock tube (2 mL). The safe lock tube was centrifuged (13,200 rpm, 10 min) and an aliquot taken for analysis.
Quantitation of in-mouth glycoside degradation - Analysis was performed on a HPLC system (Knauer, Germany) equipped with a pump (AZURA P2.1S), auto-sampler (AZURA AS 6.1L) and diode-array UV/VIS detector (AZURA DAD 6.1L). Samples were loaded onto a reversed phase C18 column (Knauer, Eurospher II 100 C18, 3 mm × 100 mm) and separated with a 10 min gradient starting at 90% solvent mixture A (0.1% formic acid in water) in solvent mixture B (0.1% formic acid in methanol) at a flow rate of 0.5 mL/min changing to 30% A in 5 min and back to 90% A in 0.05 min holding for 4.5 min. The detection UV wavelength was set at 280 nm. Quantitation was performed by using an external calibration curve.
3 healthy volunteers were asked to place raspberry ketone spiked oral products under their upper lip according to a defined procedure and leave the pouch in their mouth for 5, 10 and 20 min. The remaining glycoside of the incubated samples as well as a control sample which was not incubated was extracted as described above and quantified by means of high pressure liquid chromatography and an external calibration curve.

[2] = glucosylation of furaneol by glycosyl transferase; format: biochemical, Vitis vinifera
Description: At some instances, the present application refers to a glycosyl transferase being “capable of catalyzing” a certain reaction. For example, the present application may state that a glycosyl transferase is capable of catalyzing transfer of a sugar group from a sugar donor to a certain acceptor. This is meant to designate that under appropriate reaction conditions the rate at which the reaction product (in the example the adduct of the sugar group and the acceptor) is formed is at least 10-fold higher in the presence of said glycosyl transferase than the rate at which the reaction product is formed in a control experiment in the absence of said glycosyl transferase.

For “4-[4′-Hydroxy phenyl]-butan-2-one-4′-O-β-D-glucopyranoside [raspberry ketone glycoside]”, the “amount of raspberry ketone remaining in product” value ([1]; 0 min (control sample, not incubated), tester P-01, product spiked with 1200 ppm raspberry ketone glycoside) was 0.2 mg/mL, the “amount of raspberry ketone remaining in product” value ([1]; 0 min (control sample, not incubated), tester P-02, product spiked with 1200 ppm raspberry ketone glycoside) was 0.2 mg/mL and the “amount of raspberry ketone remaining in product” value ([1]; 0 min (control sample, not incubated), tester P-03, product spiked with 1200 ppm raspberry ketone glycoside) was 0.2 mg/mL. For the same molecule, the “percentage release of raspberry ketone from glycoside” value (“percentage release” for short) ([1]; 0 min, tester P-01) was 0%, the “percentage release” value ([1]; 0 min, tester P-02) was 0% and the “percentage release” value ([1]; 0 min, tester P-03) was 0%. The “amount of raspberry ketone remaining in product” value ([1]; 5 min in mouth, tester P-01) was 0.15 mg/mL, the “percentage release” value ([1]; 5 min in mouth, tester P-01) was 25% and the “amount of raspberry ketone remaining in product” value ([1]; 5 min in mouth, tester P-02) was 0.13 mg/mL. The “percentage release” value ([1]; 5 min in mouth, tester P-02) was 35%, the “amount of raspberry ketone remaining in product” value ([1]; 5 min in mouth, tester P-03) was 0.16 mg/mL and the “percentage release” value ([1]; 5 min in mouth, tester P-03) was 20%. For the same molecule, the “amount of raspberry ketone remaining in product” value ([1]; 10 min in mouth, tester P-01) was 0.12 mg/mL, the “percentage release” value ([1]; 10 min in mouth, tester P-01) was 40% and the “amount of raspberry ketone remaining in product” value ([1]; 10 min in mouth, tester P-02) was 0.10 mg/mL. The “percentage release” value ([1]; 10 min in mouth, tester P-02) was 50%, the “amount of raspberry ketone remaining in product” value ([1]; 10 min in mouth, tester P-03) was 0.16 mg/mL and the “percentage release” value ([1]; 10 min in mouth, tester P-03) was 20%. For the same molecule, the “amount of raspberry ketone remaining in product” value ([1]; 20 min in mouth, tester P-01) was 0.06 mg/mL, the “percentage release” value ([1]; 20 min in mouth, tester P-01) was 70% and the “amount of raspberry ketone remaining in product” value ([1]; 20 min in mouth, tester P-02) was 0.06 mg/mL. The “percentage release” value ([1]; 20 min in mouth, tester P-02) was 70%, the “amount of raspberry ketone remaining in product” value ([1]; 20 min in mouth, tester P-03) was 0.13 mg/mL and the “percentage release” value ([1]; 20 min in mouth, tester P-03) was 35%. The glycoside enzymatically cleaved ([1]; after 20 min in mouth incubation, across all panellists) was 35 - 70%.

B1: WGT14: terpene glycosyl transferase VvGT14 from Vitis vinifera (SEQ ID NO: 1) (protein, listed as Vitis vinifera)
chain: MGSMEKPHAVCIPYPAQGHINPMLKVAKLLHFRGFRITFVNTEFNHTRLLKAQGPNSLNGLPTFQFETIPDGLPPSNVDATQDIPSLCASTKKNCLAPFRRLLAKLNDRGPPVTCIFSDAVMSFTLDAAQELGIPDLLLWTASACGFMAYVQYRSLIDKGFTPLKDESYLTNGYLDTVVDWIPGMKGIRLKDLPSFIRTTDPDDIMLDFAMGELERARKASAIIFNTFDALEQEVLDAIAPMYPPIYTIGPLQLLPDQIHDSELKLIGSNLWKEEPECLKWLDSKEPNSVVYVNYGSITVMTPQQLIEFAWGLANSNQSFLWILRPDLVSGESAILPPEFVAETEDRGLLAGWCPQEQVLTHQAIGGFLTHNGWNSTIEGLCAGVPMICWPFFAEQQTNCRYCCTEWGVGMEIDSDVKRDEVAKLVRELMVGEKGKVMKKKTMEWKHRAEVATTGPDGSSYLNLEKIFEQVLL
In the case of B1, the “capability of catalyzing glucosylation of furaneol” value [2] is reported as “capable of catalyzing glucosylation of furaneol”.
